The conditions of data set [1]: known value; cited from earlier work.
A short description of data set [2]: Capillary electrophoresis (Job's plot) binding affinity of the DT3 ligand for Gd^3+ in methanol. To be noted: 25° C., 1:1 complex with Gd^3+, read-out: dissociation constant (Kd). The protocol: FIG. 11 is a plot of peak area of the Gd(DT3) by capillary electrophoresis vs. mole fraction of Gd^3+ and illustrates the Job's plot assay for determination of the stoichiometry of and dissociation constant for Gd(DT3) in methanol.
The binding affinity of the DT3 ligand for Gd^3+ and the stoichiometry of the Gd(DT3) complex was determined using capillary electrophoresis (CE). […] See, FIG. 11. […] Gadolinium(III) chloride (the source of Gd^3+ for these experiments) is insoluble in non-polar organic solvents; the dissociation constants was not measured in these solvents.

Data set [3] is described as follows: Magnetic susceptibility from levitation of a glass bead in solutions of the paramagnetic salt. It is filed as physicochemical. The conditions noted are these: four solutions 100-175 mM in 9:1 chlorobenzene-toluene, 23° C. The protocol:
The average magnetic susceptibility for solid Gd(DT3) (in the centimeter-gram-second system of units, cgs (cm^3/mol)) was determined by measuring the magnetic susceptibilities for solutions of Gd(DT3) (χl^SI, International System of Units), and by inputting these values into Equation (3). χl^SI=4πχl^CGS[Gd^3+] (3)
Magnetic susceptibility values were measured for solutions of Gd(DT3) (100-175 mM) in 9:1 chlorobenzene-toluene (23° C.) by levitating a glass bead (ρp=1.0900 g/cm^3) in these solutions (FIG. 12A). This mixture of solvents is adequate because it has a density (ρl=1.082±0.003 g/cm^3) slightly below the density of the glass bead that was used. The vertical position of the glass bead (z) in each solution was determined using a ruler, and the densities of the solutions were measured by weighing 1 mL samples. […]
The remaining variable in Equation (1) that required measuring before the calculation of χl^SI could be completed was the strength of the magnetic field at the surface of the magnet (Bmax). […] This value was determined using solutions of GdCl3 (70-100 mM) with known magnetic susceptibilities and by levitating a glass bead (ρp=1.0200 g/cm^3) in these solutions. […]
The calibrated value for Bmax was used to calculate the χl^SI values for the solutions of Gd(DT3) (using Equation (1) and values for ρl and z that were measured experimentally). […]

The nature of data set [4]: Label-free detection of streptavidin binding to solid-supported biotin by magnetic levitation. The text has this: Beads of biotin-labeled PEGA polymer swell in water (unlike polystyrene-based solid supports), have a loading capacity of 0.2 mmol amine/g PEGA, and pores of sufficient size for ˜70 kDa proteins to access the biotin on the interior of the polymer. The sensitivity of detection depends directly on the loading capacity (i.e., surface density of reacting groups) of the beads and the molecular weight of the bound molecules. In initial experiments, precipitation was observed after adding proteins to the aqueous Gd^3+ solution, so a Gd3+·DTPA chelate was used instead.
Binding of streptavidin to solid-supported biotin was detected by incubating ˜20 water saturated polymer beads with 20 μL of 0.19-mM protein dissolved in 40-mM potassium phosphate buffer (pH 7.0). After 15 min the solution, was diluted to 1.5 mL to suspend the beads using 210-mM Gd^3+·DTPA in 40-mM potassium phosphate buffer (pH 7.5), and then added ˜20 more biotin-labeled polymer beads. The solution was mixed gently for 5 s with a spatula, and then the cuvette was inserted along the axis of the magnets. After approximately 30 min, all of the beads had clustered into two separate bands (FIG. 19A), the upper one levitating at the same height as the unlabeled PEGA polymer. […]

For `[Cl][Mn][Cl]` [MnCl2], the “molar magnetic susceptibility of the solid salt” value in data set [1] is reported as 14350×10^−6 cm^3/mol. Usually Kd stands for a measure of binding affinity in units of concentration. For the compound “diethylenetriamine triacetic acid tetradecane [DT3 ligand]”, in data set [2], the equilibrium dissociation constant (Kd) was determined as 300 nM. Turning to “gadolinium(III) diethylenetriamine triacetic acid tetradecane [Gd(DT3)]”, in data set [3], the “average molar magnetic susceptibility χl^CGS” value is 0.036±0.003 cm^3/mol. As to streptavidin: a 53-kDa protein, the “binding to solid-supported biotin (levitation band)” value in data set [4] (biotin-labeled PEGA beads, 210-mM Gd^3+·DTPA, 40-mM potassium phosphate buffer) is on record as “binding of streptavidin to the solid-supported biotin”. For the same compound, in data set [4] (unlabeled PEGA polymer beads), the “non-specific adsorption to unlabeled PEGA polymer (control)” value is given as “no obvious non-specific adsorption”.
